9 compounds from ChEMBL document CHEMBL5625167, “In vitro bioevaluation and docking study of dihydrosphingosine and ethambutol analogues against sensitive and multi-drug resistant Mycobacterium tuberculosis” (Eur J Med Chem, 2023) can be followed below.

In brackets after ≈: the same amount, converted by molar mass. Several values for one entry are separate records, joined by “and”; a condition that tells them apart may be missing. Identical values can stand only once. Activity calls are given as the source filed them. The rule behind the calls is not given here. A value given as a limit tells only on which side of the number the result lay.

Data set [1] can be described thus: Cytotoxicity against human HepG2 cells assessed as reduction in cell population incubated for 48 hrs by MTT assay. It is filed as toxicity, cell-based.
Data set [2] in a line: Cytotoxicity against African green monkey Vero cells assessed as reduction in cell population incubated for 48 hrs by MTT assay. Conditions: chlorocebus sabaeus. The class given is toxicity, cell-based. On the technique in general: Formazan colour is commonly taken as a measure of viable cells.
The test system of data set [3] is Mycobacterium tuberculosis. As to the kind of experiment: Potency index, ratio of ethambutol MIC to test compound MIC for antimycobacterial activity against isoniazid, rifampicin, ethambutol and pyrazinamide sensitive Mycobacterium tuberculosis H37Rv ATCC 25618 assessed as inhibition of bacterial growth incubated for 7 days by resazurin dye based colorimetric method analysis. The class given is functional. Conditions: time 7 day.

In data set [4] the test system is Mycobacterium tuberculosis. Nature of the data set: Antimycobacterial activity against Mycobacterium tuberculosis H37Rv ATCC 25618 assessed as fractional inhibitory concentration incubated for 7 days in presence of 2-aminoheptadecan-1-ol by resazurin dye based two-dimensional micro dilution checkerboard assay. It is filed as functional. Conditions: time 7 day.
Data set [5] concerns Mycobacterium tuberculosis. Nature of the data set: Antimycobacterial activity against Mycobacterium tuberculosis H37Rv ATCC 25618 assessed as induction of morphological changes by measuring extrusion of cytosolic material at MIC incubated for 96 hrs by TEM analysis. The class given is functional, organism-based.
Data set [6] has as its system Mycobacterium tuberculosis. Nature of the data set: Antimycobacterial activity against Mycobacterium tuberculosis H37Rv ATCC 25618 incubated for 7 days by resazurin dye based two-dimensional micro dilution checkerboard assay in presence of 1-((3,4,5-trimethoxybenzyl)oxy)heptadecan-2-amine. The class given is functional. Conditions: time 7 day.
Data set [7] has as its system Mycobacterium tuberculosis. As to the kind of experiment: Antimycobacterial activity against Mycobacterium tuberculosis H37Rv ATCC 25618 assessed as induction of morphological changes by measuring disruption and discontinuity of the bacterial envelope at MIC incubated for 96 hrs by TEM analysis. The class given is functional, organism-based.
Data set [8] deals with Mycobacterium tuberculosis. As to the kind of experiment: Antimycobacterial activity against Mycobacterium tuberculosis H37Rv ATCC 25618 assessed as induction of morphological changes by measuring increase in lipid inclusions at MIC incubated for 96 hrs by TEM analysis. The class given is functional, organism-based.
For data set [9], the system named is Mycobacterium tuberculosis. As to the kind of experiment: Antimycobacterial activity against isoniazid, rifampicin, ethambutol and pyrazinamide sensitive Mycobacterium tuberculosis H37Rv ATCC 25618 assessed as inhibition of bacterial growth incubated for 7 days by resazurin dye based colorimetric method analysis. The class given is functional. The note with it: H37Rv ATCC 25618, 168 h, time 7 day. On the technique in general: Resazurin is reduced to fluorescent resorufin, in cell work by metabolically active cells.

Data set [10] has as its system Mycobacterium tuberculosis. Nature of the data set: Antimycobacterial activity against Mycobacterium tuberculosis H37Rv ATCC 25618 incubated for 7 days by resazurin dye based two-dimensional micro dilution checkerboard assay in presence of 1-(benzyloxy)heptadecan-2-amine. It is filed as functional. Conditions: time 7 day.
Data set [11] can be described thus: Cytotoxicity against mouse J774.A1 cells assessed as reduction in cell population incubated for 48 hrs by MTT assay. It is filed as toxicity, cell-based.
The subject of another data set is Klebsiella pneumoniae. As to the kind of experiment: Antibacterial activity against Klebsiella pneumoniae ATCC 13883 incubated for 18 hrs by resazurin dye based broth microdilution method. It is filed as functional.
Data set [12] has as its system Mycolicibacterium smegmatis. Nature of the data set: Antimycobacterial activity against Mycobacterium smegmatis ATCC607 incubated for 24 hrs by resazurin dye based broth microdilution method. It is filed as functional.
In the next data set the test system is Staphylococcus aureus. As to the kind of experiment: Antibacterial activity against Staphylococcus aureus ATCC 25923 incubated for 18 hrs by resazurin dye based broth microdilution method. The class given is functional.

Usually CC50 stands for the concentration that lowers cell viability or growth by half. A word on the MIC: it is the lowest concentration that inhibits growth of the organism. Consider `CC[C@@H](CO)NCCN[C@@H](CC)CO` [ETHAMBUTOL], for which the CC50 at 48 h in data set [1] is over 1440 µM; in [2], 641 µM; in [11], over 1440 µM. The Ratio in data set [3] was determined as 100. In addition, the values for the FIC in data set [4], in [6] and in data set [10] were 0.125, 0.5 and 0.5, respectively. The result in [5], in data set [7] and in [8] was Active. Also, the MIC in [9] was 3.6 µM and 1 µg/mL.

For the compound `NNC(=O)c1ccncc1` [ISONIAZID], the FIC in data set [4], in [6] and in data set [10] was 0.5 in each case. The minimal inhibitory concentration (MIC) in data set [9] was 0.91 µM and 0.13 µg/mL.

As to `CCCCCCCCCCCCCCCC(CNCCCCCC)NC(=O)OC(C)(C)C` (centres undefined), the MIC was over 512 µM in the data set on Klebsiella pneumoniae, 128 µM (≈ 58.2 µg/mL) in data set [12], 256 µM (≈ 116 µg/mL) in the data set with Staphylococcus aureus and 8 µM (≈ 3.64 µg/mL) in data set [9]. The CC50 at 48 h in data set [1] is 86.8 µM; in [2], 22.9 µM; in data set [11] it was 20.8 µM. The Ratio in data set [3] is given as 45.

Regarding `C[C@H]1COc2c(N3CCN(C)CC3)c(F)cc3c(=O)c(C(=O)O)cn1c23` [LEVOFLOXACIN ANHYDROUS], the FIC in [4] is 0.031; in data set [6], 0.5; in [10] it was 0.5. In addition, the MIC in data set [9] was 0.35 µM and 0.13 µg/mL.

Regarding `CCCCCCCCCCCCCCCC(CNCC)NC(=O)OC(C)(C)C` (centres undefined), the MIC was 512 µM (≈ 204 µg/mL) with Klebsiella pneumoniae, 32 µM (≈ 12.8 µg/mL) in data set [12], at most 4 µM in the data set on Staphylococcus aureus and 16 µM (≈ 6.38 µg/mL) in data set [9]. Further, the half-maximal cytotoxic concentration (CC50) at 48 h in [1] stood at 107 µM; in [2], 17.7 µM; in data set [11], 19.8 µM. For the same compound, in [3], the Ratio was 23.

Take `CCCCCCCCCCCCCCCC(CNCCCC)NC(=O)OC(C)(C)C` (centres undefined): the minimal inhibitory concentration (MIC) in the data set with Klebsiella pneumoniae is over 512 µM; in [12], 32 µM (≈ 13.7 µg/mL); with Staphylococcus aureus, 16 µM (≈ 6.83 µg/mL); in [9], 8 µM (≈ 3.41 µg/mL). The CC50 at 48 h stood at 136 µM in data set [1], 20.3 µM in data set [2] and 21.2 µM in data set [11]. Besides, the Ratio in data set [3] was 45.

Turning to `NCC[C@H](O)C(=O)N[C@@H]1C[C@H](N)[C@@H](O[C@H]2O[C@H](CN)[C@@H](O)[C@H](O)[C@H]2O)[C@H](O)[C@H]1O[C@H]1O[C@H](CO)[C@@H](O)[C@H](N)[C@H]1O` [AMIKACIN], the MIC in [12] is 1 µM (≈ 0.586 µg/mL); in data set [9] it was 0.1 µM and 0.08 µg/mL. In addition, the FIC in [4] is listed as 0.063; in data set [6], 0.5; in data set [10], 0.25.

Take `CCCCCCCCCCCCCCCC(COCc1ccccc1)NCC` (centres undefined): the MIC in the data set on Klebsiella pneumoniae was over 512 µM; in [12], 32 µM (≈ 12.5 µg/mL); in the data set on Staphylococcus aureus it was 16 µM (≈ 6.23 µg/mL); in [9], 16 µM (≈ 6.23 µg/mL). The results for the CC50 at 48 h in data set [1], in [2] and in data set [11] were 237 µM, 26 µM and 21.6 µM, respectively. Besides, in [3], the Ratio is given as 23.

Take `CCCCCCCCCCCCCCCCCC(CO)NCC` (centres undefined): the MIC with Klebsiella pneumoniae is 512 µM (≈ 168 µg/mL); in data set [12], 64 µM (≈ 21 µg/mL); in the data set with Staphylococcus aureus it was 32 µM (≈ 10.5 µg/mL); in [9] it was 16 µM (≈ 5.24 µg/mL). The CC50 at 48 h is 192 µM in data set [1], 23.6 µM in [2] and 135 µM in [11]. For the same compound, the Ratio in [3] is listed as 23.
